Calls of active or inactive are those of the source. No cut-off for these calls is given here.

For series [1], the species on record is Homo sapiens. As to the kind of experiment: Selectivity ratio of IC50 for recombinant human N-terminal His6/SUMO-tagged PKM1 expressed in Escherichia coli BL21 to IC50 for recombinant human N-terminal His6/SUMO-tagged PKM2 expressed in Escherichia coli BL21.
Series [2] deals with T1, Pyruvate kinase PKM (Homo sapiens, UniProt P14618). As to the kind of experiment: Inhibition of recombinant human N-terminal His6/SUMO-tagged PKM1 expressed in Escherichia coli BL21 using PEP as substrate incubated for 30 mins in presence of ADP by spectrophotometric based LDH enzyme coupled assay.
Target sequence in this assay (P14618 whole entry): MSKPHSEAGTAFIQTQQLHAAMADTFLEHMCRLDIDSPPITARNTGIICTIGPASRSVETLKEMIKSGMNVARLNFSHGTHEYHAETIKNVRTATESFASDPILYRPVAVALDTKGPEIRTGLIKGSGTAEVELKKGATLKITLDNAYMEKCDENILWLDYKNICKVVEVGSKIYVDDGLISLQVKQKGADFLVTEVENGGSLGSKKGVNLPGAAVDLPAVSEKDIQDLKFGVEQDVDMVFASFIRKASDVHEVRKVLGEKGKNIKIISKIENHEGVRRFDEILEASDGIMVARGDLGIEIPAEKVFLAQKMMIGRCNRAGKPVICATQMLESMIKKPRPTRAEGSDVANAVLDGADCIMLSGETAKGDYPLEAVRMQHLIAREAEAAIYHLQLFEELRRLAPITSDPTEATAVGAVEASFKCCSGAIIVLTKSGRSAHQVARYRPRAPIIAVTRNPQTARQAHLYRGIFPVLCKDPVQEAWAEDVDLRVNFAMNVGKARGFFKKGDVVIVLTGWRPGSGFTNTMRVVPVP
In series [3] the target is T1, Pyruvate kinase PKM. As to the kind of experiment: Inhibition of recombinant human N-terminal His6/SUMO-tagged PKM2 expressed in Escherichia coli BL21 using PEP as substrate incubated for 30 mins in presence of ADP by spectrophotometric based LDH enzyme coupled assay.
Target sequence in this assay (P14618 whole entry): as above
Series [4] can be described thus: Stability in human HeLa cells at 200 uM after 24 hrs by HPLC analysis (reference value: 100%). The series is classed as ADME, cell-based. To be noted: read-out: Stability.
In series [5] the target is T1, Pyruvate kinase PKM. In words: Binding affinity to PKM2 in human HeLa cell lysates at 200 uM after 6 hrs by silver staining based LC-MS/MS pull down analysis.
Target sequence in this assay (P14618 2-531 limits assumed): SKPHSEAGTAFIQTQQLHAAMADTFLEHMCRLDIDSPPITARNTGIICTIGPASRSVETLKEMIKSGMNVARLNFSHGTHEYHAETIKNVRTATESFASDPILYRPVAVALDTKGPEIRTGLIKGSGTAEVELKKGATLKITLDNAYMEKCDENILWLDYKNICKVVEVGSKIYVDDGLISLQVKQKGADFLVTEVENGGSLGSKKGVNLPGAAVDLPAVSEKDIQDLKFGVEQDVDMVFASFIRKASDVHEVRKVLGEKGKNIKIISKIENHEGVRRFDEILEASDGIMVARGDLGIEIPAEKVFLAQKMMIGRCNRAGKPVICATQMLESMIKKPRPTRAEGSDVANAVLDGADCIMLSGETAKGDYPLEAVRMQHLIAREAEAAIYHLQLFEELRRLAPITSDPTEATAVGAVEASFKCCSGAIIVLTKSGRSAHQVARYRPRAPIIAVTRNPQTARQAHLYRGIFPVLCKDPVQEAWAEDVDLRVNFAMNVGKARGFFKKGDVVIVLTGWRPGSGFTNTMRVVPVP
The nature of series [6]: Stability in human HeLa cells at 200 uM after 12 hrs by HPLC analysis (reference value: 100%). The series is classed as ADME, cell-based. The settings on record: read-out: Stability.
Series [7] is described as follows: Stability in human HeLa cells at 200 uM after 6 hrs by HPLC analysis (reference value: 100%). The format is ADME, cell-based. The settings on record: read-out: Stability.
Series [8] relates to HeLa. In words: Antiproliferative activity against human HeLa cells at 50 to 400 uM after 48 hrs by MTS assay. The series is classed as functional, cell-based. In general terms: Tetrazolium dyes change colour on reduction, which living cells bring about.
Series [9] can be described thus: Stability in culture medium at 200 uM after 3 hrs by HPLC analysis (reference value: 100%). The settings on record: read-out: Stability. The series is classed as physicochemical.
Series [10] can be described thus: Stability in culture medium at 200 uM after 12 hrs by HPLC analysis (reference value: 100%). The settings on record: read-out: Stability. The series is classed as physicochemical.
Series [11] can be described thus: Stability in human HeLa cells at 200 uM after 3 hrs by HPLC analysis (reference value: 100%). The series is classed as ADME, cell-based. The settings on record: read-out: Stability.
Series [12] in a line: Stability in culture medium at 200 uM after 6 hrs by HPLC analysis (reference value: 100%). The settings on record: read-out: Stability. The format is physicochemical.
Series [13] in a line: Stability in culture medium at 200 uM after 24 hrs by HPLC analysis (reference value: 100%). The format is physicochemical. The settings on record: read-out: Stability.
In series [14] the test system is HeLa. As to the kind of experiment: Induction of apoptosis in human HeLa cells at 200 to 400 uM after 48 hrs by Annexin V/propidium iodide staining based flow cytometry. The format is functional, cell-based. For orientation: Flow cytometry measures light scatter and fluorescence of single cells or particles in a stream.
For series [15], the system named is HeLa. In words: Activation of MEK/ERK/PIN1 pathway in human HeLa cells assessed as increase in phosphorylated ERK1/2 expression at 100 uM after 2 to 8 hrs by Western blot analysis. The series is classed as cell-based.
Series [16] has as its system HeLa. As to the kind of experiment: Induction of apoptosis in human HeLa cells assessed as increase in cleaved caspase 3 expression level at 100 to 400 uM by Western blot analysis. The format is functional, cell-based. (In general: A western blot detects proteins with antibodies after separation by electrophoresis.)
Series [17] deals with HeLa. As to the kind of experiment: Down regulation of cyclin B expression level in human HeLa cells at 200 to 400 uM by Western blot analysis. The series is classed as functional, cell-based.
In series [18] the target is L-lactate dehydrogenase (Homo sapiens, UniProt V9HWB9). In words: Inhibition of LDH (unknown origin) assessed as reduction in NADH oxidation at 200 uM after 30 mins. To be noted: 0.5 h.
The test system of series [19] is HeLa. In words: Cell cycle arrest in human HeLa cells assessed as accumulation at G1 phase at 200 uM after 48 hrs by […]propidium iodide staining based flow cytometry (reference value: 66.69%). The series is classed as functional.
The subject of series [20] is HeLa. As to the kind of experiment: Induction of apoptosis in human HeLa cells assessed as increase in Bax/Bcl-2 expression level at 100 to 400 uM by Western blot analysis. The series is classed as functional, cell-based.
In series [21] the test system is HeLa. In words: Cell cycle arrest in human HeLa cells assessed as accumulation at G1 phase at 400 uM after 48 hrs by […]propidium iodide staining based flow cytometry (reference value: 66.69%). The series is classed as functional.
The test system of series [22] is HeLa. In words: Down regulation of CDK1 expression level in human HeLa cells at 200 to 400 uM by Western blot analysis. The format is functional, cell-based.
Series [23] has as its system HeLa. As to the kind of experiment: Cell cycle arrest in human HeLa cells assessed as accumulation at G2 phase at 400 uM after 48 hrs by […]propidium iodide staining based flow cytometry (reference value: 7.91%). The format is functional.
Series [24] relates to HeLa. As to the kind of experiment: Effect on Glut1 expression level in human HeLa cells at 100 to 400 uM after 6 hrs by Western blot analysis. The series is classed as functional, cell-based.
Series [25] relates to HeLa. In words: Cell cycle arrest in human HeLa cells assessed as accumulation at S phase at 400 uM after 48 hrs by […]propidium iodide staining based flow cytometry (reference value: 25.41%). The format is functional.
For series [26], the target named is T1, Pyruvate kinase PKM. In words: Inhibition of PKM2 in human HeLa cells assessed as reduction in cellular glycolytic rate after 6 hrs. The format is cell-based.
Target sequence in this assay (P14618 2-531 limits assumed): as above
The test system of series [27] is HeLa. As to the kind of experiment: Activation of MEK/ERK/PIN1 pathway in human HeLa cells assessed as increase in MEK protein expression at 100 uM after 2 to 8 hrs by Western blot analysis. The series is classed as cell-based.
Series [28] concerns HeLa. In words: Activation of MEK/ERK/PIN1 pathway in human HeLa cells assessed as increase in PIN1 expression at 100 uM after 2 to 8 hrs by Western blot analysis. The series is classed as cell-based.
In series [29] the test system is HeLa. In words: Cell cycle arrest in human HeLa cells assessed as accumulation at G2 phase at 200 uM after 48 hrs by […]propidium iodide staining based flow cytometry (reference value: 7.91%). The format is functional.
Series [30] concerns HeLa. In words: Cell cycle arrest in human HeLa cells assessed as accumulation at S phase at 200 uM after 48 hrs by […]propidium iodide staining based flow cytometry (reference value: 25.41%). The series is classed as functional.
The target of series [31] is T1, Pyruvate kinase PKM. As to the kind of experiment: Binding affinity to PKM2 in human MCF7 cells at 100 uM after 6 hrs by co-immunoprecipitation based Western blot analysis. The series is classed as cell-based.
Target sequence in this assay (P14618 2-531 limits assumed): as above
Series [32] deals with T1, Pyruvate kinase PKM. As to the kind of experiment: Binding affinity to PKM2 in human A549 cells at 100 uM after 6 hrs by co-immunoprecipitation based Western blot analysis. The format is cell-based.
Target sequence in this assay (P14618 2-531 limits assumed): as above
For series [33], the target named is T1, Pyruvate kinase PKM. In words: Binding affinity to PKM2 in human HeLa cells at 100 uM after 6 hrs by co-immunoprecipitation based Western blot analysis. The format is cell-based.
Target sequence in this assay (P14618 2-531 limits assumed): as above
For series [34], the target named is T1, Pyruvate kinase PKM. As to the kind of experiment: Binding affinity to PKM2 in human HeLa cells at 100 uM after 6 hrs in presence of biotin by Western blot analysis. The format is cell-based.
Target sequence in this assay (P14618 2-531 limits assumed): as above

A word on the IC50: it is the concentration at which inhibition is half-maximal. Regarding `Cc1ccc(C)n1-c1ccc(O)c(C(=O)O)c1`, the Ratio IC50 in [1] amounted to 8. Moreover, the IC50 in [2] was 100 µM; in [3], 12.5 µM.

For the molecule `O=C1N[C@H]2[C@H](CS[C@H]2CCCCC(=O)Oc2ccc(-c3cc(=O)c4c(O)c(O)c(O)cc4o3)cc2)N1`, the remaining at 24 h, 200 µM turned out to be 37% in series [4] and 49% in [13]. Also, the outcome in series [5] and in [8] was Active. Besides, the remaining at 12 h, 200 µM in [6] is 37%; in series [10], 50%. For the same molecule, the remaining at 6 h, 200 µM in [7] was 85%; in [12], 97%. The values for the remaining at 3 h, 200 µM in series [9] and in [11] were 98% and 99%, respectively.

Turning to `O=c1cc(-c2ccc(O)cc2)oc2cc(O)c(O)c(O)c12` [SCUTELLAREIN], the outcome in series [14], in series [15], in series [16], in [17], in [20] and in series [8] was Active. Also, the result in [22], in series [27] and in series [28] was Active. In series [1], the Ratio IC50 was 8. For the same molecule, in series [18], the “inhibition (INH)” value is given as “Not Active”. For the same molecule, the Activity in series [19] stood at 62.11%; in series [21], 51.91%; in series [23], 16.19%; in series [25] it was 31.89%; in series [29], 12.55%; in series [30] it was 25.34%. For the same molecule, the IC50 in series [2] amounted to 100 µM; in [3] it was 12.5 µM. The result in series [24] was inactive. Also, the inhibition entry in [26] was “Dose-dependent effect”.

Take `CC(C)=CC[C@@H](O)C1=CC(=O)c2c(O)ccc(O)c2C1=O` [SHIKONIN]: the Ratio IC50 in series [1] was determined as 20. In addition, the 50% inhibitory concentration (IC50) in series [2] came to 10 µM; in series [3], 0.5 µM.

`O=C(O)[C@H]1O[C@@H](Oc2cc3oc(-c4ccc(O)cc4)cc(=O)c3c(O)c2O)[C@H](O)[C@@H](O)[C@@H]1O`: the inhibition result in series [26] is “Dose-dependent effect”.

With `O=C(CCCC[C@@H]1SC[C@@H]2NC(=O)N[C@@H]21)NCCOCCOCCNC(=O)COc1ccc(-c2cc(=O)c3c(O)c(O)c(O)cc3o2)cc1`, the remaining at 24 h, 200 µM in series [4] worked out at 29%; in [13], 52%. Also, the result in [31], in [14], in [5], in series [32], in series [8] and in series [33] was Active. Also, the remaining at 12 h, 200 µM in series [6] was found to be 36%; in series [10], 54%. Moreover, the remaining at 6 h, 200 µM in series [7] was 93%; in series [12] it was 87%. The Activity in series [19] is given as 63.05%; in series [21], 47.56%; in [23], 15.52%; in series [25] it was 36.92%; in series [29] it was 11.51%; in series [30] it was 25.44%. In addition, the remaining at 3 h, 200 µM in series [9] is 89%; in series [11], 98%. For the same molecule, in series [34], the outcome was inactive.

In the case of `NCCOCCOCCNC(=O)CCCC[C@@H]1SC[C@@H]2NC(=O)N[C@@H]21`, in [5], the result was Active.

Source of the values: ChEMBL document CHEMBL4177700, “Scutellarin inhibits Hela cell growth and glycolysis by inhibiting the activity of pyruvate kinase M2” (Bioorg Med Chem Lett, 2017).
